Experimental data: patent US5493007A, “Platelet aggregation inhibitors having high specificity for GPIIBIIIA” (Genentech, Inc., priority 1994, dated 1996)
Where a SMILES comes first, the peptide text is derived from it. Bridges are numbered along the chain shown (N, C = ends). [ ]: non-standard residue; d: D form. Pen = CC(C)(S)[C@H](N)C(=O)O

Columns and labels:
[1] = tested on: platelet rich plasma (PRP); assay: Rabbit ex-vivo platelet aggregation (XPA), ADP-induced; format: in vivo; details: Example 1
Protocol: Catheters are flushed and locked after every sample.
[…] of PRP is placed in a disposable glass cuvette with a stir bar. The cuvette is placed in the temperature regulated light path of a light transmittance aggregometer (Chrono-log) and equilibrated to a 37° C. Baseline transmittance is recorded for 30 seconds, after which […] of ADP (1 mM) is added and the change in transmittance recorded. The maximum change from baseline (dT) is noted for each sample. The extent of inhibition of XPA that is produced by an inhibitor is calculated for each animal as follows: Mean dTs are calculated for the pre and post infusion values, and then, percent inhibition is calculated as (1-dt (post)/ddt (pre))×100.

[2] = tested on: New Zealand White rabbits; assay: Rabbit cutaneous bleeding time (CBT); details: for Rabbit BT Ratio: Example 1, at the % P.A. inhibition given
Protocol: Unanesthetized male New Zealand White rabbits (2.5-3.5 kg) are placed in a standard rabbit restrainer. Ears are shaved and a 20 G Teflon catheter with flowswitch (Viggo) is placed in the medial artery, flushed with saline and locked with 1 ml of heparinized saline (10 m/ml). A 22 G catheter (Abbott) fitted with an injection cap (Medex) is placed in the marginal vein of the same ear. Saline or a GP IIb IIIa receptor antagonist, at a concentration of 1 to 3 mg/ml, is infused via the venous catheter. At time 0, 41% of the dose is given as a bolus over 2 minutes. The remainder is continuously infused over the following 60 minutes. Blood samples (3.2 ml) are collected into syringes without needles via the arterial catheter at -10, -5, 10, 45, and 60 minutes. The first 0.5 ml is discarded and the following 2.7 ml is collected directly into a syringe containing 0.3 ml of 3.8% sodium citrate. The sample is divided into 1.5 ml aliquots and centrifuged at room temperature for 5 seconds at 12,000 G. The resulting platelet rich plasma (PRP) is used to measure ex-vivo platelet aggregation (XPA). At -10 and 60 minutes an additional 1 cml sample is drawn for an automated blood count (Baker instruments). Catheters are flushed and locked after every sample.
CBT is measured at -10, -5, 10, and 45 minutes on the opposite ear, using an automated incision-making instrument (Surgicutt®, ITD). An incision (5mm×1 mm deep) is made on the dorsal surface of the ear at sites not supplied by major blood vessels. Blood is blotted away with absorbent paper placed near the incision site, every 2 to 15 seconds, to a maximum of 15 minutes. Cessation of bleeding is defined as no blood forming at the incision site for 15 seconds. The range of duplicate CBT in 40 normal rabbits was 0.88 to 3.38 minutes.

[3] = target: T1, GP IIb IIIa (Homo sapiens, UniProt P05106+P08514); details: Kirchofer et al. 1990; versus αvβ3 and α5β1; cited from earlier work
[4] = tested on: New Zealand White rabbits; assay: Rabbit peripheral blood flow and CBT, laser Doppler series; format: in vivo; details: 1 mg intravenously over 2 minutes at 60 minutes, within 5 minutes, laser doppler probe
Protocol: In an alternative series of experiments, (Table 2 ) PBF was measured quantitatively with a laser Doppler flow probe (Perimed). The probe was positioned securely over the vascular bed of one ear and flow monitored continuously. Each inhibitor was infused and CBT measured in the opposing ear. No arterial catheter was placed for blood sampling, consequently XPA was not measured in these animals.
As a positive control, epinephrine was infused intravenously (1 mg over 2 minutes.) at 60 minutes. The resulting vasoconstriction reduced flow to near 0 flow units within 5 minutes.

[5] = target: vitronectin receptor (Homo sapiens, UniProt P05106+P06756); details: cited from earlier work
Sequence of vitronectin receptor (P06756 31-889 limits assumed): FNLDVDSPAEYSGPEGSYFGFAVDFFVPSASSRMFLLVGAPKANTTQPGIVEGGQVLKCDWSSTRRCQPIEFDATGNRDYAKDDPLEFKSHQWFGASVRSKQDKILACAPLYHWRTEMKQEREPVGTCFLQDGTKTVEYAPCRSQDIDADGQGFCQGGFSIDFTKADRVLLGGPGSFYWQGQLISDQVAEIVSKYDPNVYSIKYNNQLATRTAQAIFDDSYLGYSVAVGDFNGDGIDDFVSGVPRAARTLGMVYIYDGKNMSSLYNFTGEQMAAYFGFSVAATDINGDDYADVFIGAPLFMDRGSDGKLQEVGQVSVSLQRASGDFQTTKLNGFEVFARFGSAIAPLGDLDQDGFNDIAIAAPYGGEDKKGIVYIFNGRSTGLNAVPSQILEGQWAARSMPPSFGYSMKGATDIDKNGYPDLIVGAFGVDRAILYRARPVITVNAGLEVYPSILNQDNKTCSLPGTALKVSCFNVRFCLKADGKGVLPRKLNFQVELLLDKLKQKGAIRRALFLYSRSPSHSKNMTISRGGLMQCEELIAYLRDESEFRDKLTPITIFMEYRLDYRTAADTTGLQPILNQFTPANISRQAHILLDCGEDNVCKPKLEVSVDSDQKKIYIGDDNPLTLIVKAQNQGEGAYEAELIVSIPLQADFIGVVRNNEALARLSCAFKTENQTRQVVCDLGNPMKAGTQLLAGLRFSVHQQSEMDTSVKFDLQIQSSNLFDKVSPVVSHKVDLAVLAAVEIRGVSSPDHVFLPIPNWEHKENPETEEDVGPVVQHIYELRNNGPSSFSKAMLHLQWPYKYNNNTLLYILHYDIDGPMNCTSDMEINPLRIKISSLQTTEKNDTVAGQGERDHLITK
Sequence of vitronectin receptor (P06756 891-1048 partner limits assumed): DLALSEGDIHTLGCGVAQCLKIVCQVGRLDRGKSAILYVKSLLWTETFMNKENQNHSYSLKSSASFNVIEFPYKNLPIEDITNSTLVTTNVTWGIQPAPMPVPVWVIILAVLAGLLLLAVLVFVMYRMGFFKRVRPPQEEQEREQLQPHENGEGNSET
Sequence of vitronectin receptor (P05106 27-788): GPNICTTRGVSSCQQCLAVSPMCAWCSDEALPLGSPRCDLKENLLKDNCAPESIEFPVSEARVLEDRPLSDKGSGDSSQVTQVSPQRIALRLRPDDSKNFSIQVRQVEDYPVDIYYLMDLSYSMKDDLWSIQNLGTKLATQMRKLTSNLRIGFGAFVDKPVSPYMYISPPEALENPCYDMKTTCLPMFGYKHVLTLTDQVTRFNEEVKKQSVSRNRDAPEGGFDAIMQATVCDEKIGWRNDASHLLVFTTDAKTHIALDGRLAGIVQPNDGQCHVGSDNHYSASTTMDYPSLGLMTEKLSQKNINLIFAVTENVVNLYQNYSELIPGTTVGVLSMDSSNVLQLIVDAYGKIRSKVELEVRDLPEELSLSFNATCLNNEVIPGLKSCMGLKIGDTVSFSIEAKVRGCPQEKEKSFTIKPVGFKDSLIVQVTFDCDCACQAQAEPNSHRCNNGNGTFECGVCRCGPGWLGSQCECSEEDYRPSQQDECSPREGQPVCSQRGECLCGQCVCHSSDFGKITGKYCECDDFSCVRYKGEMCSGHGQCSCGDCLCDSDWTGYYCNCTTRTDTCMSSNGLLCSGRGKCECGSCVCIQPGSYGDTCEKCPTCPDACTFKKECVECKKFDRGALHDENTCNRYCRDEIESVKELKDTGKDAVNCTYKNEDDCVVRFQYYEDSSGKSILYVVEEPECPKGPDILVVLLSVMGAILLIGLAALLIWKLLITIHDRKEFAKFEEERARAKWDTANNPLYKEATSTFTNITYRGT

[6] = target: T2, Fibronectin Receptor (Homo sapiens, UniProt P05556+P08648); details: Pierschbacher et al. 1987; cited from earlier work
T2 sequence (P08648 42-894 limits assumed): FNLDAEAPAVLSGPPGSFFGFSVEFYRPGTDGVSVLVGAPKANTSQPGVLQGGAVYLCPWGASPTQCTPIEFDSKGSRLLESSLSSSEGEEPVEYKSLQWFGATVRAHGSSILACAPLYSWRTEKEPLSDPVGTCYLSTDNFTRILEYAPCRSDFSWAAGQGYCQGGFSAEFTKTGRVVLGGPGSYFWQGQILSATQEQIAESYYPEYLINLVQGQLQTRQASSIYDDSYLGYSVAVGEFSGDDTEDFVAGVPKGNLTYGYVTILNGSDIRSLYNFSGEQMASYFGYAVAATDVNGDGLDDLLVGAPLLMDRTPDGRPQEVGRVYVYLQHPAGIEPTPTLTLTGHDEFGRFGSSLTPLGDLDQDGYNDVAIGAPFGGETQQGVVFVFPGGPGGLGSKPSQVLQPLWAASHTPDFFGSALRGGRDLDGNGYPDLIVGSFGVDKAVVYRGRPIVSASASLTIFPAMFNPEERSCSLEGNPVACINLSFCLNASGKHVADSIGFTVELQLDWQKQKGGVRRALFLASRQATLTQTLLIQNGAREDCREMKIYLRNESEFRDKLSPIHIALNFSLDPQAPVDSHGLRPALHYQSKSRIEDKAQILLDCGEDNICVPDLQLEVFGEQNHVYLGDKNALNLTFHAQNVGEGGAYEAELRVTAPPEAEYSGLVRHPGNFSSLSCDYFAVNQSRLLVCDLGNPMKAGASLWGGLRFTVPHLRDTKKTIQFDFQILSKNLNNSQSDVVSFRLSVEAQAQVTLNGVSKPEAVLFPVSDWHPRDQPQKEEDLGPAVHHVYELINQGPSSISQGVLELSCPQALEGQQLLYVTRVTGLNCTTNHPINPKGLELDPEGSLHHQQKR
T2 sequence (P08648 895-1049 partner limits assumed): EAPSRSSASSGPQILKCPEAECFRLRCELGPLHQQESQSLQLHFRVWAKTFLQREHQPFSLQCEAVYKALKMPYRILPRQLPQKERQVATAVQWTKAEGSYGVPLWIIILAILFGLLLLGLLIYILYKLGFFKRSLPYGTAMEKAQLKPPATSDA
T2 sequence (P05556 21-798): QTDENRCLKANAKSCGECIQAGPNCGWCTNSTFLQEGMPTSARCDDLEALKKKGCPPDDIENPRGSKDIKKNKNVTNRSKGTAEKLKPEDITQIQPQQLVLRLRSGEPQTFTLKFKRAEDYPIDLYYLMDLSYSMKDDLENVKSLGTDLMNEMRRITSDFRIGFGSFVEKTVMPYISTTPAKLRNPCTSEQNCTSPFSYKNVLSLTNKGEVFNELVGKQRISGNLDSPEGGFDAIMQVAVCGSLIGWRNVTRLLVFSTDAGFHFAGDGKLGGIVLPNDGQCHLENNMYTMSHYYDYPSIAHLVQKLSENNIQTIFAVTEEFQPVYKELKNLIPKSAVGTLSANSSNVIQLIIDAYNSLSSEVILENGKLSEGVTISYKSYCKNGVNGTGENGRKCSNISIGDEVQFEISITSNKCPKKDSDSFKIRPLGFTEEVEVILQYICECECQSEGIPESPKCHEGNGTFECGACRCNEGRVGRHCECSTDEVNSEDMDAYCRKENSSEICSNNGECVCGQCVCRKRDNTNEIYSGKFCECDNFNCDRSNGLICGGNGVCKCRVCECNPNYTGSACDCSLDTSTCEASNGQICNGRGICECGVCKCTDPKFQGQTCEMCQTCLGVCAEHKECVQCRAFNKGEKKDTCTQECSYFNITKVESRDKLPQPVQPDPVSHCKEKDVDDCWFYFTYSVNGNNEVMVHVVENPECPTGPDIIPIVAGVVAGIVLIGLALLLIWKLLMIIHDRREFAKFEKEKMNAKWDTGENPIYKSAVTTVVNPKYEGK

[7] = target: human platelet rich plasma (PRP) (Homo sapiens, UniProt P05106+P08514); assay: In Vitro Human Platelet Aggregation Assay; format: cell-based; details: human PRP; read-out: Human Platelet Aggregation IC50
Protocol: Platelet aggregation assays are performed in human platelet rich plasma (PRP). Fifty milliliters of whole human blood (9 parts) is drawn on 3.6% sodium citrate (1 part) from a donor who has not taken aspirin or related medications for at least two weeks. The blood is centrifuged at 160×g for 10 minutes at 22° C. and allowed to stand for 5 minutes after which the PRP is decanted. Platelet poor plasma (PPP) is isolated from the remaining blood after centrifugation at 2000×g for 25 minutes. The platelet count of the PRP is diluted to about 300,000 platelets per microliter with PPP.
A 225 μl aliquot of PRP plus 25 μl of either a dilution of the test inhibitor sample or a control (PBS) is incubated for 5 minutes in a Chrono-log Whole Blood Aggregometer at 25° C. An aggregating agent (collagen, 1 μg/ml; U46619, 100 ng/ml; or ADP, 17 μM) is added and the transmission is recorded.

[8] = target: T1, GP IIb IIIa; assay: GP IIb IIIa -von Willebrand factor (vWF) ELISA Assay; format: binding; parameters: GP IIb IIIa, prepared by the method of Fitzgerald et al; from tissue; details: GP IIb IIIa-coated plates, vWF; read-out: ELISA IC50 GPIIb IIIa vWF
Protocol: Microtiter plates are coated with 1.0 μg/ml GP IIb IIIa, prepared by the method of Fitzgerald et al., (Anal. Biochem. 151:169-177 [1985]) and allowed to incubate overnight in coat buffer. The plates are then washed three times in wash buffer (0.05% Tween 20 in PBS) and 150 μl of assay buffer is added and allowed to incubate for 1-2 hours at room temperature on plate shaker. The plates are washed three times and 50 μl of 2x inhibitor in assay buffer (Assay buffer: 0.5% BSA/50 mM Tris, 100 mM NaCl, 1.0 mM CaCl2, 1.0mM MgCl2, 1.0 mM MnCl2; coat buffer is the same but without BSA) is added. Fifty μl of 4.0 μg/ml vWF (prepared as described by Ledford et al., Thrombosis and Haemostasis, 64(4): 569-575 [1990]) in assay buffer is then added and allowed to incubate for one hour at room temperature on plate-shaker. The plates are washed three times and the antibody mixture is added (1:5000 of mouse anti-vWF and 1:5000 of rabbit-anti-mouse-Fc-HRP, both commercially available) in assay buffer and incubated for 1 hour at room temperature on plate-shaker. Plates are again washed three times and 100 μl of substrate solution (10 mg OPD, 6.5 μl H2 O2, 15 ml phosphate citrate buffer) is added and incubated at room temperature. The color change of OPD/H2 O2 reagent is read at 492 nm with a 405 nm reference wavelength on the filter photometer.

[9] = target: T2, Fibronectin Receptor; assay: Human Fibronectin-Fibronectin Receptor ELISA Assay; format: binding; parameters: octylglucoside (OG) extracted human placenta; from tissue; host or cells: human placenta; details: human placenta fibronectin receptor, fibronectin-coated plates; read-out: ELISA IC50 Fibronectin FnR
Protocol: Fibronectin receptor is purified according to the procedures of Pytela et al., (Methods Enzymol. 144:475 […]). Briefly, fibronectin receptor is purified employing an Arg-Gly-Asp affinity chromatography from (100 mM) octylglucoside (OG) extracted human placenta. The OG extract is filtered over Sepharose 6B GRGDSPK column. The column is washed three times with three column volumes of Tris-buffered saline (TBS) TBS, 1 mM CaCl2, and 25 mM OG. The receptor is eluted with TBS, 20 mM EDTA, and 25 mM Octyl thioglucoside, and is stored in 1 mM CaCl2, 1 mM MgCl2, at -80° C.
Microtiter plates are coated with 110 μl human fibronectin (at 2 μg/ml) in TBS. Plates are washed three times with TBS containing 0.05% Tween 20. Test inhibitors are then added after washing in 10 microliter aliquots. The fibronectin receptor is added in 2-fold serial dilutions with TBS containing 20 mM octyl glucoside and 2 mM MnCl2. Plates are incubated three hours at room temperature, and washed with 200 μl TBS-Tween 20 buffer. 100 μl of affinity-purffied rabbit anti-human fibronectin receptor antibody is added to the wells and the plates are incubated two hours, washed twice with TBS-Tween and once with distilled water. Affinity-purified goat anti-rabbit IgG conjugated to horseradish peroxidase (100 μl) is added to each well followed by incubation for 60 minutes at room temperature. Plates are again washed twice with TBS-Tween and distilled water. 100 μl of substrate mixture (10 mg o-phenylenediamine in 25 ml 0.1M citrate-phosphate buffer, pH 5.0 6 μ30% H2 O2) is added to the plates and allowed to develop. The development process is stopped by adding 50 μl of 4N H2 SO4 to each well and read at […].

[10] = target: T3, Vitronectin Receptor (αvβ3) (Homo sapiens, UniProt P05106+P06756); assay: Human Vitronectin-Vitronectin Receptor (αvβ3) ELISA Assay; format: binding; details: purified human αvβ3, vitronectin-coated plates; read-out: ELISA IC50 Vitronectin VnR
T3 construct: Human vitronection receptor (VnR) is purified from human placenta; from tissue; host or cells: human placenta
T3 sequence (P06756 31-889 limits assumed): as the sequence (P06756 31-889 limits assumed) above
T3 sequence (P06756 891-1048 partner limits assumed): as the sequence (P06756 891-1048 partner limits assumed) above
T3 sequence (P05106 27-788): as the sequence (P05106 27-788) above
Excerpt: Human vitronectin (Vn) is isolated from human plasma and purified by affinity chromatography by the method of Yatohgo et. al., (Cell Structure and Function 13:281-292 [1988]).
Human vitronection receptor (VnR) is purified from human placenta by the method of Pytela et al., (Methods Enzymol., 144:475 [1987]). Alternatively the αvβ3 receptor can be purified from some cell lines (e.g., human embryonic kidney 293 cells) transfected with DNA sequences for both the αv and β3 subunits. The subunits are purified by employing octylglucoside extraction followed by Con-A, Heparin-Sepharose, and S-300 Chromatography.
Anti-GP IIb IIIa monoclonal antibodies specific for human GP IIIa are prepared by the method of Newman et al. (Blood, 65:227-232 [1985]), or a similar procedure. This mouse Mab is specific for the β3 subunit of the vitronectin receptor.
Rabbit Fab 2 anti-mouse Fc fragment horse radish peroxidase conjugate (anti-MuFc HRP) is obtained from PelFreeze (cat. no. 715305-1).
Maxisorp microtiter plates are coated with 2 μg/ml human vitronectin dissolved in PBS ([…]) and stored overnight at 4° C. The plates are washed two times with PBS-0.05% Tween-20 (wash buffer) and blocked by incubating with about 150 μl/well of assay buffer (1%, BSA [RIA grade or better] in 50 mM Tris-HCl, 100 mM NaCl, 1 mM MgCl2, CaCl2, MnCl2 pH 7.4) for 60 minutes. Dilutions of standards are prepared and putative inhibitors (Table 3) are dissolved in assay buffer. The blocked plates are emptied and 25 μl/well of inhibitor or standard solution is added to each well. Twenty-five μl of a 30 μg/ml solution of purified αvβ3 in assay buffer is pipetted into the coated plate. The final concentration of receptor in the assay well is about 15 μg/ml. The plate is incubated on a shaker for 60 minutes. Meanwhile, for each microtite plate, 6 ml buffer solution containing 1.5 μg/ml of mouse monoclonal antibody specific for β3 is prepared. To this solution is added μl of the secondary antibody, which is anti-mouse-Fc-HRP antibody conjugate. For example, for one plate, prepare 6 ml of a 1.5 μg/ml mouse Mab solution to which is added 1 μl of anti-mouse-Fc-HRP antibody stock, (this represents a 1:6000 dilution of the antibody - HRP conjugate). This mixture is allowed to incubate during the receptor-inhibitor incubation. The assay plates are washed 4 times with PBS-Tween and 50 μl/well of the antibody mixture is then pipetted into the plate for a 60 minute incubation. The plate is washed 4 times and the color reaction is developed with 50 μl/well of 0.67 mg/ml o-phenyldiamine in PBS containing 0.012% H2 O2. Alternatively, 16 mM citric acid, 50 mM Na2 PO4 at pH 5.0 can be used as a substrate buffer. The reaction is stopped with 50 μl/well 1M H2 SO4. The plates are read at 492-405 nm and the data analyzed by four-parameter fit.

Molecule: N=C(N)NCCC[C@@H]1NC(=O)[C@@H](Cc2ccc(O)cc2)NC(=O)C[S+]([O-])C[C@@H](C(=O)N[C@H](CCCNC(=N)N)C(N)=O)NC(=O)[C@H](CC(=O)O)NC(=O)CNC1=O (single isomer, unassigned) [7/34]
- Rabbit % P.A. Inhibition (ex vivo) [1]: 64%
- Rabbit BT Ratio ([2]; rabbit): 0.94

Molecule: cyclic-2,10-GPenGHRGDLRCA
- integrin selectivity, in words [3]: preferentially inhibits the binding of GP IIb IIIa to fibrinogen

Molecule: CNC[C@H](O)c1ccc(O)c(O)c1 [epinephrine]
- peripheral blood flow after positive control [4]: ~0 flow units

Molecule: N=C(N)NCCC[C@@H]1NC(=O)[C@@H](Cc2ccc(O)c(Br)c2)NC(=O)C[S+]([O-])C[C@@H](C(=O)N[C@@H](CCCCN)C(N)=O)NC(=O)[C@H](CC(=O)O)NC(=O)CNC1=O (single isomer, unassigned) [7/36]
- Rabbit % P.A. Inhibition (ex vivo) [1]: 91%
- Rabbit BT Ratio ([2]; rabbit): 0.77

Molecule: N=C(N)NCCC[C@H](NC(=O)[C@@H]1C[S+]([O-])CC(=O)N[C@H](Cc2ccc(O)cc2)C(=O)N[C@@H](CCCNC(=N)N)C(=O)NCC(=O)N[C@@H](CC(=O)O)C(=O)N1)C(N)=O (single isomer, unassigned) [7/32]
- Rabbit % P.A. Inhibition (ex vivo) [1]: 99%
- Rabbit BT Ratio ([2]; rabbit): 1.17

Molecule: cyclic-1,7-VRGDSPDG
- integrin selectivity, in words ([5]; Kirchofer et al. 1990): preferentially inhibited αvβ3 (vitronectin receptor) binding to vitronectin

Molecule: CC1(C)SCC(=O)N[C@H](Cc2ccc(O)cc2)C(=O)N[C@@H](CCCCN)C(=O)NCC(=O)N[C@@H](CC(=O)O)C(=O)N[C@@H]1C(=O)O [7/47] ({CH2CO}-[dY]KGD[Pen]-OH; thioether N-5)
- Rabbit % P.A. Inhibition (ex vivo) [1]: 96%
- cutaneous bleeding time, result in words [2]: prolongation of bleeding time in vivo in both the rabbit and dog model
- Rabbit BT Ratio ([2]; rabbit): 8.57
- increase of cutaneous bleeding time compared to the undosed animal ([2]; rabbit, dose sufficient to achieve about 97% inhibition of platelet aggregation): 8.6 times

Molecule: Gly-Pen-Gly-Arg-Gly-Asp-Ser-Pro-Cys-Ala
- inhibition of the fibronectin-fibronectin receptor interaction, in words [6]: ineffective
- effectiveness at inhibiting the vitronectin-vitronectin receptor interaction, cyclized versus uncyclized peptide ([5]; Pierschbacher et al. 1987): 10 times

Molecule: NCCCC[C@@H]1NC(=O)[C@@H](Cc2ccc(O)cc2)NC(=O)C(c2ccccc2)SC[C@@H](C(=O)O)NC(=O)[C@H](CC(=O)O)NC(=O)CNC1=O (single isomer, unassigned) [7/45, cyclo-S-phenylacetyl-dTyr--Lys--Gly--Asp--Cys--OH]
- IC50 [7]: 0.22 µM
- Rabbit BT Ratio ([2]; rabbit): 4.47
- IC50 [8]: 0.001 µM
- IC50 [9]: > 10 µM
- IC50 [10]: > 20 µM
